The MIC is the smallest concentration in the dilution series that meets the test's criterion for growth inhibition. Usually MBC stands for the smallest concentration meeting the test's criterion for killing. A lower MBC goes with greater bactericidal potency.

Structures are written as SMILES. Like-named read-outs stand apart in the source and are kept apart here.

This note sets out measurements from paper PMC10052977, “α,ω-Diacyl-Substituted Analogues of Natural and Unnatural Polyamines: Identification of Potent Bactericides That Selectively Target Bacterial Membranes” (International Journal of Molecular Sciences, 2023).

In series [1] the test system is Staphylococcus aureus ATCC 25923 or ATCC 29213. The experiment in a line: MIC, broth dilution (CA-SFM). It counts as cell-based. (In general: In broth dilution the organism is exposed to a series of concentrations in liquid medium.)
The test system of another series is MRSA ATCC 43300. The experiment in a line: MIC, CO-ADD broth microdilution. It counts as cell-based, Staphylococcus aureus. To be noted: for MIC: Staphylococcus aureus, MRSA ATCC 43300, mean (n = 2), read-out: MIC MRSA.
Series [2] deals with Escherichia coli ATCC 25922. The experiment in a line: MIC, CO-ADD broth microdilution. To be noted: ATCC25922, mean (n = 2). It counts as cell-based.
Series [3] has as its system Pseudomonas aeruginosa PAO1 or ATCC 27853. The experiment in a line: MIC, broth dilution (CA-SFM). It counts as cell-based. To be noted: mean (n = 3).
Series [4] deals with Klebsiella pneumoniae ATCC700603. The experiment in a line: MIC, CO-ADD broth microdilution. It counts as cell-based. To be noted: mean (n = 2).
Series [5] relates to Acinetobacter baumannii ATCC19606. The experiment in a line: MIC, CO-ADD broth microdilution. To be noted: mean (n = 2). It counts as cell-based.
Series [6] has as its system Candida albicans ATCC90028. The experiment in a line: Antifungal MIC, CO-ADD. The settings on record: mean (n = 2). It counts as cell-based. The method, boiled down: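 Yeast from 3-day YPD cultures was diluted in YNB broth to a final 2.5 × 10^3 CFU/mL and incubated at 35 °C for 36 h without shaking. C. albicans MICs were read by OD530 absorbance. QC used fluconazole and Z'-factor controls.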

For series [7], the system named is Cryptococcus neoformans ATCC208821. The experiment in a line: Antifungal MIC, CO-ADD. The settings on record: ATCC208821, Cryptococcus neoformans ATCC208821, mean (n = 2). It counts as cell-based. The method, boiled down: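 Fungal strains were grown on YPD agar at 30 °C for 3 days. Five colonies were used to make a yeast suspension of 1 × 10^6 to 5 × 10^6 CFU/mL, which was diluted in yeast nitrogen base (YNB) broth to 2.5 × 10^3 CFU/mL. Covered plates were incubated without shaking at 35 °C for 36 h. Fluconazole was the positive control, and quality was judged from antimicrobial controls and the Z'-factor.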

Series [8] is described as follows: Cytotoxicity assay (resazurin). It counts as cell-based, human. The settings on record: human; HEK293 cells; mean (n = 2); highest dose tested 32 μg/mL; read-out: Cytotoxicity (concentration of compound at 50% cytotoxicity, IC50).
Series [9] has as its system HEK293 human embryonic kidney cells. The experiment in a line: Cytotoxicity assay (resazurin). It counts as cell-based. The settings on record: HEK293. On the technique in general: The colour change of resazurin is a common sign of viable cells or microbes.
The next series has as its system human red blood cells. The experiment in a line: Hemolytic assay. The settings on record: for Hemolysis (HC10, concentration at 10% hemolytic activity): mean (n = 2). It counts as cell-based. In a few lines: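 Washed human erythrocytes at 0.5 × 10^8 cells/mL in 0.9% NaCl, shaken 10 min with compound, then held 1 h at 37 °C. Released hemoglobin in supernatant after centrifugation read at OD405; HC10 and HC50 from variable-slope sigmoidal fit against log concentration.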

Series [10] relates to MRSA (CF-Marseille). The experiment in a line: MIC, classical microdilution. It counts as cell-based. The settings on record: Staphylococcus aureus, 4.4 μM = 4 μg/mL.
The test system of series [11] is Bacillus cereus ATCC 11778. The experiment in a line: MIC, classical microdilution. To be noted: ATCC11778, 4.4 μM = 4 μg/mL. It counts as cell-based.
Series [12] relates to Bacillus cereus ATCC 11778. The experiment in a line: Minimum bactericidal concentration test. It counts as cell-based. To be noted: ATCC11778, same value as MIC. The method, then:
(§1) A pure culture of a specified microorganism was grown overnight, then diluted in growth-supporting broth (typically Mueller–Hinton II broth) to a concentration between 1 × 10^5 and 1 × 10^6 CFU/mL. A stock dilution of the antimicrobial test compound was created at approximately 100 times the expected previously determined MIC. Further 1:1 dilution was made in 96-well microtiter plates. All dilutions of the test compound were inoculated with equal volumes of the specified microorganism (typically 100 µL). […] An aliquot of the positive control is plated and used to establish a baseline concentration of the microorganism used. The microtiter plates were then incubated at 37 °C for 24 h. Turbidity indicates growth of the microorganism, and the MIC is the lowest concentration where no growth is visually observed. To determine the minimum bactericidal concentration (MBC), the dilution representing the MIC and at least two of the more concentrated test product dilutions are plated on a solidified agar plate to determine the bacterial viability. The MBC is the lowest concentration where no growth is encountered when compared to the MIC dilution.

Series [13] has as its system MRSA (CF-Marseille). The experiment in a line: Minimum bactericidal concentration test. It counts as cell-based. The settings on record: Staphylococcus aureus, same value as MIC. The method, then:
as §1

Series [14] has as its system S. aureus ATCC 25923. The experiment in a line: Minimum bactericidal concentration test. It counts as cell-based. The settings on record: Staphylococcus aureus, ATCC25923, same value as MIC. The method, then:
as §1

In series [15] the test system is MRSA (CF-Marseille). The experiment in a line: Real-time growth curves. It counts as cell-based, Staphylococcus aureus. The procedure:
(§2) Solutions of compound 15d at concentrations of 2, 4 and 16 µg/mL were tested, each in triplicate, against S. aureus ATCC 25923, MRSA (CF-Marseille) and Bacillus cereus ATCC 11778. Typically, in a 96-well plate, 10 µL of 40, 80 and 320 µg/mL stock solutions of compound 15d were placed, as well as 190 µL of a 5 × 10^5 CFU/mL of the selected bacterial suspension in brain heart infusion (BHI) broth. Positive controls containing only 200 µL of a 5 × 10^5 CFU/mL of bacterial suspension in BHI and negative controls containing only 200 µL of BHI broth were added. The plate was incubated at 37 °C in a TECAN Spark Reader (Roche Diagnostic), and real-time bacterial growth was followed by OD590 nm measurement every 10 min during 19 h.

Series [16] deals with S. aureus ATCC 25923. The experiment in a line: Real-time growth curves. It counts as cell-based, Staphylococcus aureus. The method, then:
as §2

Series [17] concerns Bacillus cereus ATCC 11778. The experiment in a line: Real-time growth curves. To be noted: B. cereus ATCC 11778. It counts as cell-based. The method, then: as §2
Series [18] relates to S. aureus ATCC 25923. The experiment in a line: ATP release assay (bioluminescence). It counts as cell-based, Staphylococcus aureus. The settings on record: brief exposure. The method, then: The mechanism of action of antibacterial activity observed for 15d was attributed to the ability to disrupt the bacterial cell membrane.
Solutions of test compound 15d were prepared in DMSO at various concentrations. A suspension of growing S. aureus to be studied in Muller–Hinton II broth was prepared and incubated at 37 °C. An aliquot (90 µL) of this suspension was added to 10 µL of test compound solution and vortexed for 10 s. Luciferin–luciferase reagent (Yelen, France; 50 µL) was immediately added to this mixture and luminescent signal quantified with an Infinite M200 microplate reader (Tecan) over a 30 min period. ATP concentration was quantified by internal sample addition. A similar procedure was used for the CTAB positive control.

Where [19] appears, read: Staphylococcus aureus ATCC 25923 or ATCC 29213, mean (n = 3), read-out: MIC S. a.
Setting [20] is: at 4.4 μM (4 µg/mL) and 17 μM (16 µg/mL).
[21] abbreviates: lowest tested concentration 2.2 μM (2 µg/mL).

As to `O=C(CCC(=O)NCCCc1ccccc1)NCCCNCCCCCCCCCCCCNCCCNC(=O)CCC(=O)NCCCc1ccccc1.O=C(O)C(F)(F)F.O=C(O)C(F)(F)F` [Compound 14f, N^1,N^12-Bis(3-(4-oxo-4-((3-phenylpropyl)amino)butanamido)propyl)dodecane-1,12-diaminium 2,2,2-trifluoroacetate], the MIC in [1] (setting [19]) was 6.25 µM; with MRSA ATCC 43300, no more than 0.26 µM; in series [2] it was greater than 32.7 µM; in [3] it was greater than 100 µM; in series [4], greater than 32.7 µM; in [5], greater than 32.7 µM. Also, the MIC in series [6] and in [7] was greater than 32.7 µM in each case. In addition, the “activity towards MRSA” value in the series on MRSA ATCC 43300 (MRSA) is “potent”. For the same compound, the IC50 at 20 h in [8] was greater than 32.7 µM. The “cytotoxicity” value in series [9] is on record as “non-toxic”. Also, the “hemolytic properties” value in the series with human red blood cells is “non-hemolytic”. Also, the “Hemolysis (HC10, concentration at 10% hemolytic activity)” value in the series on human red blood cells is greater than 32.7 µM.

On to `O=C(CC(c1ccccc1)c1ccccc1)NCCCNCCCCCCCCNCCCNC(=O)CC(c1ccccc1)c1ccccc1.O=C(O)C(F)(F)F.O=C(O)C(F)(F)F` [Compound 15d, N^1,N^8-Bis(3-(3,3-diphenylpropanamido)propyl)octane-1,8-diaminium 2,2,2-trifluoroacetate], for which the MIC in [1] (setting [19]) was 3.13 µM; in [1] (Staphylococcus aureus, S. aureus ATCC 25923, classical microdilution, 4.4 μM = 4 μg/mL, read-out: MIC), 4.4 µM; in the series with MRSA ATCC 43300, no more than 0.28 µM; in [2] it was 2.2 µM; in series [3], 100 µM; in [4], greater than 35.4 µM. Further, the minimum inhibitory concentration (MIC) in series [5] was greater than 35.4 µM; in series [6] it was greater than 35.4 µM; in [7], greater than 35.4 µM; with MRSA (CF-Marseille) [10] it was 4.4 µM; in series [11], 4.4 µM. The IC50 at 20 h in series [8] is greater than 35.4 µM. For the same compound, the “cytotoxicity” value in series [9] is given as “no detectable”. Further, the “hemolytic properties” value in the series with human red blood cells was “no detectable”. Also, the “Hemolysis (HC10, concentration at 10% hemolytic activity)” value in the series with human red blood cells was greater than 35.4 µM. For the same compound, the MBC (in [12]; in the series with MRSA (CF-Marseille) [13]; in the series with S. aureus ATCC 25923 [14]) was 4.4 µM each time. Also, the “real-time growth inhibition” value (in the series with MRSA (CF-Marseille) [15] (setting [20]); in the series on S. aureus ATCC 25923 [16] (setting [20]); in [17] (setting [20])) was “completely inhibited” in each case. Further, the “time after which bacterial growth was detected” value with MRSA (CF-Marseille) [15] (setting [21]) worked out at 4 h; in the series with S. aureus ATCC 25923 [16] (setting [21]), 6 h; in [17] (setting [21]), 12 h. Further, the “leakage of intracellular ATP” value in the series with S. aureus ATCC 25923 [18] is listed as “rapid dose-dependent leakage of intracellular ATP”.
